Laboratory results as given in patent US20160375006A1, “USES OF PARALOG-SELECTIVE INHIBITORS OF GSK3 KINASES” (priority 2012, published 2016).

What was measured:
CaMK1δ = CaMK1δ (Homo sapiens, UniProt Q8IU85)
Description: (§1) This was completed utilizing one of two assays depending on the kinase being examined.
(§2) A solution of IMAP binding reagent (IMAP Screening Express kit; Molecular Devices) (60 μL) was added to each well and incubated for 30 minutes.
(§3) A solution of termination buffer (QuickScout Screening assist MSA; Carna Biosciences) (60 μL) was added to each well. The entire reaction mixture was then applied to a LabChip3000 system (Caliper Life Science) and the product and substrate peptide peaks were separated and quantified.
(§4) The assay utilized was identical to that of the single point inhibitory activity determination (MSA) but run in dose response. […] A solution of termination buffer (QuickScout Screening assist MSA; Carna Biosciences) (60 μL) was added to each well. The entire reaction mixture was then applied to a LabChip3000 system (Caliper Life Science) and the product and substrate peptide peaks were separated and quantified.

CDK9/CycT1 = CDK9/CycT1 (Homo sapiens, UniProt P50750)
Description: as §1, §2, §3, §4

NDR2 = NDR2 (Homo sapiens, UniProt Q9Y2H1)
Description: as §1, §2, §3, §4

BRSK2 = BRSK2 (Homo sapiens, UniProt Q8IWQ3)
Description: as §1, §2, §3, §4

IKKε = IKKε (Homo sapiens, UniProt Q14164)
Description: as §1, §2, §3, §4

MSK1 = MSK1 (Homo sapiens, UniProt O75582)
Description: as §1, §2, §3

RSK1 = RSK1 (Homo sapiens, UniProt Q15418)
Description: as §1, §2, §3

MAP2K6_Cascade = MAP2K6_Cascade (Homo sapiens, UniProt P52564)
Description: as §1, §2, §3, §4

IRAK1 = IRAK1 (Homo sapiens, UniProt P51617)
Description: as §1, §2, §3, §4

PEK = PEK (Homo sapiens, UniProt Q9NZJ5)
Description: as §1, §2, §3

JAK1 = JAK1 (Homo sapiens, UniProt P23458)
Description: as §1, §2, §3, §4

NEK9 = NEK9 (Homo sapiens, UniProt Q8TD19)
Description: as §1, §2, §3, §4

MAP2K7_Cascade = MAP2K7_Cascade (Homo sapiens, UniProt O14733)
Description: as §1, §2, §3, §4

CHK1 = CHK1 (Homo sapiens, UniProt O14757)
Description: as §1, §2, §3, §4

MAP3K1_Cascade = MAP3K1_Cascade (Homo sapiens, UniProt Q13233)
Description: as §1, §2, §3, §4

ABL(E255K) = ABL(E255K) (Homo sapiens, UniProt P00519, E255K)
Description: as §1, §2, §3

BLK = BLK (Homo sapiens, UniProt P51451)
Description: as §1, §2, §3, §4

PKCδ = PKCδ (Homo sapiens, UniProt Q05655)
Description: as §1, §2, §3, §4

NEK1 = NEK1 (Homo sapiens, UniProt Q96PY6)
Description: as §1, §2, §3

TNIK = TNIK (Homo sapiens, UniProt Q9UKE5)
Description: as §1, §2, §3, §4

MAP2K4_Cascade = MAP2K4_Cascade (Homo sapiens, UniProt P45985)
Description: as §1, §2, §3, §4

CaMK2β = CaMK2β (Homo sapiens, UniProt Q13554)
Description: as §1, §2, §3, §4

AurB = AurB (Homo sapiens, UniProt Q96GD4)
Description: as §2, §3, §4

LTK = LTK (Homo sapiens, UniProt P29376)
Description: as §1, §2, §3, §4

EGFR(d746-750/T790M) = EGFR(d746-750/T790M) (Homo sapiens, UniProt P00533, DEL746-750/T790M)
Description: as §1, §2, §3, §4

FGFR3(K650M) = FGFR3(K650M) (Homo sapiens, UniProt P22607, K650M)
Description: as §2, §3, §4

HER2 = HER2 (Homo sapiens, UniProt P04626)
Description: as §1, §2, §3, §4

EPHB3 = EPHB3 (Homo sapiens, UniProt P54753)
Description: as §1, §2, §3, §4

CRIK = CRIK (Homo sapiens, UniProt O14578)
Description: as §1, §2, §3

MST4 = MST4 (Homo sapiens, UniProt Q9P289)
Description: as §1, §2, §3, §4

BRSK1 = BRSK1 (Homo sapiens, UniProt Q8TDC3)
Description: as §1, §2, §3, §4

PKCζ = PKCζ (Homo sapiens, UniProt Q05513)
Description: as §1, §2, §3, §4

TRKA = TRKA (Homo sapiens, UniProt P04629)
Description: as §1, §2, §3, §4

TRKB = TRKB (Homo sapiens, UniProt Q16620)
Description: as §1, §2, §3, §4

NuaK2 = NuaK2 (Homo sapiens, UniProt Q9H093)
Description: as §1, §2, §3, §4

PAK5 = PAK5 (Homo sapiens, UniProt Q9P286)
Description: as §1, §2, §3

MOS_Cascade = MOS_Cascade (Homo sapiens, UniProt P00540)
Description: as §1, §2, §3, §4

MNK2 = MNK2 (Homo sapiens, UniProt Q9HBH9)
Description: as §1, §2, §3

p38γ = p38γ (Homo sapiens, UniProt P53778)
Description: as §1, §2, §3

AMPKα2/β1/γ1 = AMPKα2/β1/γ1 (Homo sapiens, UniProt P54646)
Description: as §1, §3
The assay utilized was identical to that of the single point inhibitory activity determination (MSA) but run in dose response.

Chain of IRAK1 (P51617 whole entry): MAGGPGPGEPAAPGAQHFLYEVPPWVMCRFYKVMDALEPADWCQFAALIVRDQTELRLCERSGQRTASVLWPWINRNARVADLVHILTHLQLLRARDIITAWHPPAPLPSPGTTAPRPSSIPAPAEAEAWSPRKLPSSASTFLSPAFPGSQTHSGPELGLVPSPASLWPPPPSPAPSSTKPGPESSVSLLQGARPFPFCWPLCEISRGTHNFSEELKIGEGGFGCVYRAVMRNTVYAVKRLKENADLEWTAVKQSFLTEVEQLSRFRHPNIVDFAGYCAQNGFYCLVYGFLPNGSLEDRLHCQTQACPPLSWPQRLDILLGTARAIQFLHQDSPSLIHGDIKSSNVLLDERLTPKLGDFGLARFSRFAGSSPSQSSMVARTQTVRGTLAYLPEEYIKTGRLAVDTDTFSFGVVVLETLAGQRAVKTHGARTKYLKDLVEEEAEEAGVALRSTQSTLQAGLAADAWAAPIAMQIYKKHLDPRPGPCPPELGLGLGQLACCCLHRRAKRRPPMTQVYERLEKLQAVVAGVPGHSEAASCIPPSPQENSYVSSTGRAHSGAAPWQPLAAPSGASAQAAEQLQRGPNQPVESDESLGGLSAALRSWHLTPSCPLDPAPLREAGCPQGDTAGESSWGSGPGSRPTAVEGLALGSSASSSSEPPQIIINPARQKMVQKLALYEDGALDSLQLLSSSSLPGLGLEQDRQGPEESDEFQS
Chain of NDR2 (Q9Y2H1 whole entry): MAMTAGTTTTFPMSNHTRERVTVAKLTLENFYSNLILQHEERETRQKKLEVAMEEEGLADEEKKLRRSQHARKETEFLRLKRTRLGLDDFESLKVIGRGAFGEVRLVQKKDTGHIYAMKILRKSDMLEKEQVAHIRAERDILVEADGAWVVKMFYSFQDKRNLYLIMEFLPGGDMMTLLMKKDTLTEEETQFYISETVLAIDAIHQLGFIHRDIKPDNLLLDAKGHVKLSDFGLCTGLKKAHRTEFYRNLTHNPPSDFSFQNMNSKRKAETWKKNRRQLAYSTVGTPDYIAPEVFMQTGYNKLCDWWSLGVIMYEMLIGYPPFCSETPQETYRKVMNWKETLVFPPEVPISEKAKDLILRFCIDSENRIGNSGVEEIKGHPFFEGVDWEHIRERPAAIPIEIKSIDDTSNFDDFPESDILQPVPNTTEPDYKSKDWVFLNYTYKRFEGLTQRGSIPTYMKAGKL
Chain of ABL(E255K) (P00519 whole entry E255K): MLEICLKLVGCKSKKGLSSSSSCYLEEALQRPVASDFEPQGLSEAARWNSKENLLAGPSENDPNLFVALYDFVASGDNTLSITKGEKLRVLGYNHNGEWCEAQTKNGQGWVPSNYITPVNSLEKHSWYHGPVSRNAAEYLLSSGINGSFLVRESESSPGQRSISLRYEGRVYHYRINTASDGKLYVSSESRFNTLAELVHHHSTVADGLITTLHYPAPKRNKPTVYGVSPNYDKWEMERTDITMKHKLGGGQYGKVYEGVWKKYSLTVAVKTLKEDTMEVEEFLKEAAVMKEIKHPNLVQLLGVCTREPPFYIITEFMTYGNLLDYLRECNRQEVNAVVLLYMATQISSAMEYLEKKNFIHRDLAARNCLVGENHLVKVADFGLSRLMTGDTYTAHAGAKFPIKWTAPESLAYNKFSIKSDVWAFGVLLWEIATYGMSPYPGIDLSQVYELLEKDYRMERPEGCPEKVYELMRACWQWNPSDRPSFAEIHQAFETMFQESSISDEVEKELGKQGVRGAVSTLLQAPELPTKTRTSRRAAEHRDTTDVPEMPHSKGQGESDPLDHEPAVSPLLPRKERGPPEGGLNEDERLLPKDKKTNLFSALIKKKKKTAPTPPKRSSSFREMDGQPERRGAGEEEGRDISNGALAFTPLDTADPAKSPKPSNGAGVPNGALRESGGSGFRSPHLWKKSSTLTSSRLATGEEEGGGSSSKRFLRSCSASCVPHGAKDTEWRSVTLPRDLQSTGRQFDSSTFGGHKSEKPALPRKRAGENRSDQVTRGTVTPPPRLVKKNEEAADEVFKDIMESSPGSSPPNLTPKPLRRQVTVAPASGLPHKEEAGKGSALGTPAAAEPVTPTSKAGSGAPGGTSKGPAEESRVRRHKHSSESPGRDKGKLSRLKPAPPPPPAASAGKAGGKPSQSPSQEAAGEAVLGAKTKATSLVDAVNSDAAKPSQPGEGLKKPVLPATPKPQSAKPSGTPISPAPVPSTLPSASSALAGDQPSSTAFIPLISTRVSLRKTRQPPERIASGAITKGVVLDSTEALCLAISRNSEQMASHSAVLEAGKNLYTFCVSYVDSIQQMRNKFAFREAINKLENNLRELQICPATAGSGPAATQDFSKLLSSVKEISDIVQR
Chain of MST4 (Q9P289 whole entry): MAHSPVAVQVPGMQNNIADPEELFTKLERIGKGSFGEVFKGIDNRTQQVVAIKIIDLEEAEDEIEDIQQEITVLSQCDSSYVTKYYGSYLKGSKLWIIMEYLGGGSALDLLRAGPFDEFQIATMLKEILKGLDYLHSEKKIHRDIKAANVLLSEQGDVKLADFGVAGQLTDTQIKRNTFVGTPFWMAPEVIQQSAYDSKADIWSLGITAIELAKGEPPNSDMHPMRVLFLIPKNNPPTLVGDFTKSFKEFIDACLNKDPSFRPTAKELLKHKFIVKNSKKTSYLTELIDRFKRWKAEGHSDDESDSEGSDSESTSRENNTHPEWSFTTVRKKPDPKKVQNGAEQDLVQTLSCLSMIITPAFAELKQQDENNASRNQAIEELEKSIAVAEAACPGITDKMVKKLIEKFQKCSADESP
Chain of PKCζ (Q05513 whole entry): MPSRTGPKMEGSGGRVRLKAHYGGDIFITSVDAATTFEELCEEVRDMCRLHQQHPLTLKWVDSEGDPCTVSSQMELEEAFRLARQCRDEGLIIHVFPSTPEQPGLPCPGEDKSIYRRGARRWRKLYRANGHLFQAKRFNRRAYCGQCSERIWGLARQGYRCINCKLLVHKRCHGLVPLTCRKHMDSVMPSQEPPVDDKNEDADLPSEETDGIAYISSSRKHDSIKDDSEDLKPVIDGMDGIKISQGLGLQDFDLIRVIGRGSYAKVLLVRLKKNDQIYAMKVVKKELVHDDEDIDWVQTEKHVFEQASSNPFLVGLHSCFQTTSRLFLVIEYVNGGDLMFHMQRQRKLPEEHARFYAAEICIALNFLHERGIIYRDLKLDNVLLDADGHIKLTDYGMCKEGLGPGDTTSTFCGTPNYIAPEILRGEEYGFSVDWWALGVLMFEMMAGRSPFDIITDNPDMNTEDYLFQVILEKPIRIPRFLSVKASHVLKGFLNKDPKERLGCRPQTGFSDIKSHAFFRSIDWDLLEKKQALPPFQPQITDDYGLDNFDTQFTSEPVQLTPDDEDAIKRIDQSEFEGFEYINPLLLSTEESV
Chain of TNIK (Q9UKE5 whole entry): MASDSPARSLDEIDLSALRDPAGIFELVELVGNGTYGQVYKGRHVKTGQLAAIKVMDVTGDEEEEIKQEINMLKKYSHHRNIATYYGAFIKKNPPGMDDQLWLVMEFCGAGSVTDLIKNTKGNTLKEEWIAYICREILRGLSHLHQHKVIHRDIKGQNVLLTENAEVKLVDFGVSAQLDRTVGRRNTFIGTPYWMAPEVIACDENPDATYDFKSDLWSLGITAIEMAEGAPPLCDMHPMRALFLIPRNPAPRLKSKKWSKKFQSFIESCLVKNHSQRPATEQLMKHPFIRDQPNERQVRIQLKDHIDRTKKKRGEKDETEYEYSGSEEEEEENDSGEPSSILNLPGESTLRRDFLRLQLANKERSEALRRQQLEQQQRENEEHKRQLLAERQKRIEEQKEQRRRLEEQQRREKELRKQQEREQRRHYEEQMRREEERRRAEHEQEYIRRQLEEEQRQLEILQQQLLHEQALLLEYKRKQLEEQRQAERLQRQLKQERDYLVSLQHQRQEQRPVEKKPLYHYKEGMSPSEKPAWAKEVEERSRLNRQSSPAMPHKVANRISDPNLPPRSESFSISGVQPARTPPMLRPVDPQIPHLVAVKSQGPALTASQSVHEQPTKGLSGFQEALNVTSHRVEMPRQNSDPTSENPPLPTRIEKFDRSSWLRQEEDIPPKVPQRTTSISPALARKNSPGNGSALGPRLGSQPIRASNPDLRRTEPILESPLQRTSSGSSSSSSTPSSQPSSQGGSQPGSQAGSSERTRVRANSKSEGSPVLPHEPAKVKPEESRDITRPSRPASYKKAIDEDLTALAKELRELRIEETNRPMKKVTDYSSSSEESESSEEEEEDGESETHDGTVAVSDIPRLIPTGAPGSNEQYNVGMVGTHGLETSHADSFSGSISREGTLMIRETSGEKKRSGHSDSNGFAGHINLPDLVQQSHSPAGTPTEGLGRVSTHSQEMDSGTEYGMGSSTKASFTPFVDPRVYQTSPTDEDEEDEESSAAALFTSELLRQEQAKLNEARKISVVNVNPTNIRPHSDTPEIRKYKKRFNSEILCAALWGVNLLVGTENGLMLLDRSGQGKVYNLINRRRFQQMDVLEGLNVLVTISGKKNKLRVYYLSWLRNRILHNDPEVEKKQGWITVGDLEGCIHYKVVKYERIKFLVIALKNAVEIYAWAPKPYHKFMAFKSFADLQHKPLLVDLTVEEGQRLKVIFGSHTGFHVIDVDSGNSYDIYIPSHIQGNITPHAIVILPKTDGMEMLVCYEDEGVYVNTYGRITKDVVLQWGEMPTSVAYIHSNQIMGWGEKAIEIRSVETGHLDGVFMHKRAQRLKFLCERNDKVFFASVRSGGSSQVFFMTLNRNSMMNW
Chain of MAP2K4_Cascade (P45985 2-399 limits assumed): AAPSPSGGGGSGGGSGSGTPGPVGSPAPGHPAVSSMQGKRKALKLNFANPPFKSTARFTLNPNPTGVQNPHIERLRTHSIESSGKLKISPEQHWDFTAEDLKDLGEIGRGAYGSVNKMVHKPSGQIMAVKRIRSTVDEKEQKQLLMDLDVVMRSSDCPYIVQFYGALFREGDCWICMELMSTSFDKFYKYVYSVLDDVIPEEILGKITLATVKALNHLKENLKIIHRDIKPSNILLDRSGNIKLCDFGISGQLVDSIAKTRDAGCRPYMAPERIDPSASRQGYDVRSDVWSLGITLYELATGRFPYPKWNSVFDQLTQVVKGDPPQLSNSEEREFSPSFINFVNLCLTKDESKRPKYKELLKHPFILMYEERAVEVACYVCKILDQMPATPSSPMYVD

CC[C@@]1(c2ccccc2)C2=C(CC(C)(C)CC2=O)Nc2n[nH]cc21 [BRD0705]
% Inhibition at 10 μM (CaMK1δ): −3.0% | % Inhibition at 10 μM (CDK9/CycT1): 8.4% | % Inhibition at 10 μM (NDR2): −9.9% | % Inhibition at 10 μM (BRSK2): 1.8% | % Inhibition at 10 μM (IKKε): −4.5% | % Inhibition at 10 μM (MSK1): −27.1% | % Inhibition at 10 μM (RSK1): −6.4% | % Inhibition at 10 μM (MAP2K6_Cascade): 4.2% | % Inhibition at 10 μM (IRAK1): 3.1% | % Inhibition at 10 μM (PEK): 1.7% | % Inhibition at 10 μM (JAK1): −1.3% | % Inhibition at 10 μM (NEK9): 3.5% | % Inhibition at 10 μM (MAP2K7_Cascade): −0.6% | % Inhibition at 10 μM (CHK1): 2.9% | % Inhibition at 10 μM (MAP3K1_Cascade): 1.8% | % Inhibition at 10 μM (ABL(E255K)): −0.3% | % Inhibition at 10 μM (BLK): −3.4% | % Inhibition at 10 μM (PKCδ): −5.5% | % Inhibition at 10 μM (NEK1): −9.6% | % Inhibition at 10 μM (TNIK): 6.8% | % Inhibition at 10 μM (MAP2K4_Cascade): −3.0% | % Inhibition at 10 μM (CaMK2β): −9.0% | % Inhibition at 10 μM (AurB): −2.8% | % Inhibition at 10 μM (LTK): −3.6% | % Inhibition at 10 μM (EGFR(d746-750/T790M)): −3.5% | % Inhibition at 10 μM (FGFR3(K650M)): −2.7% | % Inhibition at 10 μM (HER2): −11.1% | % Inhibition at 10 μM (EPHB3): −1.3% | % Inhibition at 10 μM (CRIK): −15.2% | % Inhibition at 10 μM (MST4): −0.4% | % Inhibition at 10 μM (BRSK1): −1.6% | % Inhibition at 10 μM (PKCζ): −1.0% | % Inhibition at 10 μM (TRKA): 2.9% | % Inhibition at 10 μM (TRKB): 4.5% | % Inhibition at 10 μM (NuaK2): −1.7% | % Inhibition at 10 μM (PAK5): 9.3% | % Inhibition at 10 μM (MOS_Cascade): −1.0% | % Inhibition at 10 μM (MNK2): −5.9% | % Inhibition at 10 μM (p38γ): −3.4% | % Inhibition at 10 μM (AMPKα2/β1/γ1): 5.1%

CC(C)(C)Cc1[nH]nc2c1[C@](C)(c1ccccc1)C1=C(CC(C)(C)CC1=O)N2 [BRD3731]
% Inhibition 10 μM (CaMK1δ; 10 μM): 16.7% | % Inhibition 10 μM (CDK9/CycT1; 10 μM): 11.3% | % Inhibition 10 μM (NDR2; 10 μM): −3.2% | % Inhibition 10 μM (BRSK2; 10 μM): −2.9% | % Inhibition 10 μM (IKKε; 10 μM): −1.4% | % Inhibition 10 μM (MSK1; 10 μM): 7.4% | % Inhibition 10 μM (RSK1; 10 μM): 23.4% | % Inhibition 10 μM (MAP2K6_Cascade; 10 μM): 3.3% | % Inhibition 10 μM (IRAK1; 10 μM): 1.2% | % Inhibition 10 μM (PEK; 10 μM): 1.4% | % Inhibition 10 μM (JAK1; 10 μM): 3.7% | % Inhibition 10 μM (NEK9; 10 μM): 2.9% | % Inhibition 10 μM (MAP2K7_Cascade; 10 μM): 3.0% | % Inhibition 10 μM (CHK1; 10 μM): −16.4% | % Inhibition 10 μM (MAP3K1_Cascade; 10 μM): 4.0% | % Inhibition 10 μM (ABL(E255K); 10 μM): 8.3% | % Inhibition 10 μM (BLK; 10 μM): 4.9% | % Inhibition 10 μM (PKCδ; 10 μM): 10.7% | % Inhibition 10 μM (NEK1; 10 μM): −0.1% | % Inhibition 10 μM (TNIK; 10 μM): −1.2% | % Inhibition 10 μM (MAP2K4_Cascade; 10 μM): 7.6% | % Inhibition 10 μM (CaMK2β; 10 μM): 0.3% | % Inhibition 10 μM (AurB; 10 μM): −2.3% | % Inhibition 10 μM (LTK; 10 μM): −3.5% | % Inhibition 10 μM (EGFR(d746-750/T790M); 10 μM): 3.7% | % Inhibition 10 μM (FGFR3(K650M); 10 μM): 0.8% | % Inhibition 10 μM (HER2; 10 μM): 3.8% | % Inhibition 10 μM (EPHB3; 10 μM): 0.1% | % Inhibition 10 μM (CRIK; 10 μM): −0.7% | % Inhibition 10 μM (MST4; 10 μM): 6.4% | % Inhibition 10 μM (BRSK1; 10 μM): 7.9% | % Inhibition 10 μM (PKCζ; 10 μM): 5.0% | % Inhibition 10 μM (TRKA; 10 μM): 12.0% | % Inhibition 10 μM (TRKB; 10 μM): 11.0% | % Inhibition 10 μM (NuaK2; 10 μM): −2.8% | % Inhibition 10 μM (PAK5; 10 μM): 6.5% | % Inhibition 10 μM (MOS_Cascade; 10 μM): −9.5% | % Inhibition 10 μM (MNK2; 10 μM): −5.6% | % Inhibition 10 μM (p38γ; 10 μM): −2.6% | % Inhibition 10 μM (AMPKα2/β1/γ1; 10 μM): 16.7%
